ChEMBL document CHEMBL6103629 (J Med Chem, 2025)

Key:
LoVo [1] = assay: Antiproliferative activity against human LoVo cells assessed as reduction in cell viability incubated for 120 hrs by Cell-titer Glo luminescent assay
CWR22R = assay: Antiproliferative activity against human 22Rv1 cells incubated for 120 hrs by Cell-titer Glo luminescent assay; conditions: 22Rv1, 120 h
[2] = biological target: Serine/threonine-protein kinase ATR (Homo sapiens, UniProt Q13535); assay: Inhibition of ATR (unknown origin) assessed as reduction in p53 phosphorylation level incubated for 30 mins by TR-FRET assay
Chain of Serine/threonine-protein kinase ATR (Q13535 whole entry): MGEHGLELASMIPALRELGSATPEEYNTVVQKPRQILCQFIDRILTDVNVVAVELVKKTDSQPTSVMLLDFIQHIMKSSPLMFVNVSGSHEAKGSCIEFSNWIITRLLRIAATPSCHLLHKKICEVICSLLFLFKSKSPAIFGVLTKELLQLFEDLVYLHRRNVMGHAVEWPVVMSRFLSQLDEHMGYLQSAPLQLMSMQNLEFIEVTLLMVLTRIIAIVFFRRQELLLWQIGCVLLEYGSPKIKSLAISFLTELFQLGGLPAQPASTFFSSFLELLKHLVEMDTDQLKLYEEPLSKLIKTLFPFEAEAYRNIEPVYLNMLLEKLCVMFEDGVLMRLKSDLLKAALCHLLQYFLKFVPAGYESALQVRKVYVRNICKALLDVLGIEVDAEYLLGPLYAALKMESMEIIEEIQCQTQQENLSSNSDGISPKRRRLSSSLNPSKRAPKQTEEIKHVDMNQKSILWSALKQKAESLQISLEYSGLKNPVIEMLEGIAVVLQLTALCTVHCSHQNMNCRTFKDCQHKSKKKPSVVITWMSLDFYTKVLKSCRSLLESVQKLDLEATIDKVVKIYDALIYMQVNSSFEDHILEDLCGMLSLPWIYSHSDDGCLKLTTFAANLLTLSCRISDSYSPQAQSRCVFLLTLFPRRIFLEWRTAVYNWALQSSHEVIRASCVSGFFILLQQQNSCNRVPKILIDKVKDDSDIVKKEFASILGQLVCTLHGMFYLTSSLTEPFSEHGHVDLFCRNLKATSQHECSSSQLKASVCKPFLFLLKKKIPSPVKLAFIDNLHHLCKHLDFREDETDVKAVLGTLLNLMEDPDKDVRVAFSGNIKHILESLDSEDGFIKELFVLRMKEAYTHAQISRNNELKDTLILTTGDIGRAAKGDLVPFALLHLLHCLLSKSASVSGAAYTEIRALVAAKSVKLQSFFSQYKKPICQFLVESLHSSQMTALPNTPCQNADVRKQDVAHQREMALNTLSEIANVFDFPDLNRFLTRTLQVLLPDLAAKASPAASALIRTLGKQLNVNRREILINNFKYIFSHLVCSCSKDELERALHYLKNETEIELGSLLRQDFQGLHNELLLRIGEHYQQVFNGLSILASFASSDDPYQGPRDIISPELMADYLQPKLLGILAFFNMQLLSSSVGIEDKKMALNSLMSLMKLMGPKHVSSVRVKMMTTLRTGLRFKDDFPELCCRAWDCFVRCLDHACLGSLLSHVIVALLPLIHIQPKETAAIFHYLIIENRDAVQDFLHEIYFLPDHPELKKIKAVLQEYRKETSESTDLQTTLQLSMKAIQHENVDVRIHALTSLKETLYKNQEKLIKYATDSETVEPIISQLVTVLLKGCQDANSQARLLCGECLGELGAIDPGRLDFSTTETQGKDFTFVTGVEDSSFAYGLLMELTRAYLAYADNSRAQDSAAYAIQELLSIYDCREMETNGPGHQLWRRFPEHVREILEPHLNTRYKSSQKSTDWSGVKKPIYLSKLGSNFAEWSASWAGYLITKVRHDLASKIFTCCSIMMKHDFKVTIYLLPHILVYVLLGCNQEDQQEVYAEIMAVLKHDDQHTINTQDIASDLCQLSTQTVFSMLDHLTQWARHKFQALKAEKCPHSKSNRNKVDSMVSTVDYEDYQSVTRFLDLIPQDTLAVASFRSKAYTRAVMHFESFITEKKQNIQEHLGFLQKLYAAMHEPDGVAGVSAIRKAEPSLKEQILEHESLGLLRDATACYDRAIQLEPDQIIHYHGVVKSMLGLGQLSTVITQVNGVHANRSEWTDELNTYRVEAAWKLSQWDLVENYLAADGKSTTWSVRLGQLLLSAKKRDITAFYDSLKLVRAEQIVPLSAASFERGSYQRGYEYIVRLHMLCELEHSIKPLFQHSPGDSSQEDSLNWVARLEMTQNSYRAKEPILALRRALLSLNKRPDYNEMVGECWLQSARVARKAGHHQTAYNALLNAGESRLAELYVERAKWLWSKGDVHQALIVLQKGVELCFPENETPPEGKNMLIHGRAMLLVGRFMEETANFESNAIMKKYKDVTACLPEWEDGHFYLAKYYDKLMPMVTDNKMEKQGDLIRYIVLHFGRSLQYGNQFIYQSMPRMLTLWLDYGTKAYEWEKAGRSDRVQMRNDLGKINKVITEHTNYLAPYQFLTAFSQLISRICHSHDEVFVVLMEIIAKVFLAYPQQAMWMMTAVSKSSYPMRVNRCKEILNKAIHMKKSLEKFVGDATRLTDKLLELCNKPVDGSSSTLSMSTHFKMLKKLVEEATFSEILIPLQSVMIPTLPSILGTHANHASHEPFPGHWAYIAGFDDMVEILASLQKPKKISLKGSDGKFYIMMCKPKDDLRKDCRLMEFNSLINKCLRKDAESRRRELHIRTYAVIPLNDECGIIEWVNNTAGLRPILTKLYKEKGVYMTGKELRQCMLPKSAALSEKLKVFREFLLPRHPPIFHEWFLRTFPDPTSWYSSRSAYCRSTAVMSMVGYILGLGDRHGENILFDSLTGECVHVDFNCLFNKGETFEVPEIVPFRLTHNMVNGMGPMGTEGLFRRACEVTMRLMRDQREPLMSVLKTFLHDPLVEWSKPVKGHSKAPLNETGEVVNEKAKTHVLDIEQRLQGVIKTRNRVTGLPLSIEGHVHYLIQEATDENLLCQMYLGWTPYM

LoVo [3] = assay: Induction of apoptosis in human LoVo cells assessed as early apoptotic cells at 3 uM incubated for 24 hrs by Annexin-V-FITC-PI staining based flow cytometric analysis (reference value: 13.7 %); assay type: functional
NCI-H1703 = assay: Antitumor activity against human NCI-H1703 cells xenografted in female Balb/c nude mouse assessed as tumor growth inhibition at 50 mg/kg QD, po measured every 3 days for 28 days by vernier caliper based analysis relative to control; assay type: functional; conditions: NCI-H1703, 672 h, time 28 day, read-out: TGI
LoVo [4] = assay: Induction of apoptosis in human LoVo cells assessed as viable cells at 3 uM incubated for 24 hrs by Annexin-V-FITC-PI staining based flow cytometric analysis (reference value: 72.1 %); assay type: functional; conditions: read-out: Activity
JeKo-1 = assay: Antitumor activity against human JeKo-1 cells xenografted in female CB17 SCID mouse assessed as tumor growth inhibition at 50 mg/kg BID, po measured every 2 days for 24 days relative to control; assay type: functional; conditions: JeKo-1, 576 h, time 24 day, read-out: TGI
LoVo [5] = assay: Induction of apoptosis in human LoVo cells assessed as necrotic cells at 3 uM incubated for 24 hrs by Annexin-V-FITC-PI staining based flow cytometric analysis (reference value: 0.97 %); assay type: functional
LoVo [6] = assay: Induction of apoptosis in human LoVo cells assessed as late apoptotic cells at 3 uM incubated for 24 hrs by Annexin-V-FITC-PI staining based flow cytometric analysis (reference value: 13.2 %); assay type: functional
LoVo [7] = assay: Antitumor activity against human LoVo cells xenografted in female Balb/c nude mouse assessed as tumor growth inhibition at 50 mg/kg QD, po measured every 3 days for 25 days relative to control; assay type: functional; conditions: 600 h, time 25 day, read-out: TGI

Structure (SMILES) | IC50 (CWR22R) [µM] | also measured
Cc1n[nH]c(C)c1-c1nc(N2CCOC[C@H]2C)c2nc(-c3cccc4[nH]ccc34)ccc2n1 | – | IC50 (LoVo [1]): 0.246 µM
Cc1n[nH]c(C)c1-c1cc(N2CC3CCC(C2)O3)n2ncc(-c3ccnn3C)c2n1 | 6.73 | –
Cc1nn(-c2cncc(C(F)(F)F)c2)c(C)c1-c1cc(N2CC3CCC(C2)O3)nc2c(-c3ccn[nH]3)cnn12 | 2.82 | –
Cc1nn(-c2cccnc2)c(C)c1-c1cc(N2C[C@H]3C[C@@H]2CO3)nc2c(-c3ccn[nH]3)cnn12 | > 10 | –
Cc1nn(-c2cccnc2)c(C)c1-c1cc(N2C3CCC2COC3)nc2c(-c3ccn[nH]3)cnn12 | 0.332 | –
Cc1nn(-c2ccncc2)c(C)c1-c1cc(N2CC3CCC(C2)O3)nc2c(-c3ccn[nH]3)cnn12 | 1.79 | –
Cc1nn(-c2cncc(C(F)F)c2)c(C)c1-c1cc(N2CC3CCC(C2)O3)nc2c(-c3ccn[nH]3)cnn12 | 0.972 | –
Cc1nn(C2CCNCC2)c(C)c1-c1cc(N2CC3CCC(C2)O3)nc2c(-c3ccn[nH]3)cnn12 | 4.33 | –
Cc1n[nH]c(C)c1-c1cc(N2CC3CCC(C2)O3)nc2c(-c3ccnn3C)cnn12 | 6.48 | IC50 [2]: > 0.5 µM
Cc1n[nH]c(C)c1-c1cc(N2CC3CCC(C2)O3)n2ncc(-c3cn[nH]c3)c2n1 | 1.73 | –
Cc1n[nH]c(C)c1-c1cc(C23CCC(CNC2)O3)nc2c(-c3cccs3)cnn12 (centres undefined) | 0.988 | –
Cc1nn(-c2cncnc2)c(C)c1-c1cc(N2CC3CCC(C2)O3)nc2c(-c3ccn[nH]3)cnn12 | 1.41 | –
C[C@@H]1COCCN1c1cc(C2([S@](C)(=N)=O)CC2)nc(-c2cc[nH]c3nccc2-3)n1 [CERALASERTIB] | 0.92 | Activity (LoVo [3]): 19.3%; inhibition in vivo at 50 mg/kg (NCI-H1703): 34%; viability at 3 µM (LoVo [4]): 54.7%; inhibition in vivo at 50 mg/kg (JeKo-1): 90.6%; Activity (LoVo [5]): 1.93%; Activity (LoVo [6]): 24%; inhibition in vivo at 50 mg/kg (LoVo [7]): 57%
Cc1nn(-c2cncc(Br)c2)c(C)c1-c1cc(N2CC3CCC(C2)O3)nc2c(-c3ccn[nH]3)cnn12 | 0.437 | –
Cc1nn(C2CCCNC2)c(C)c1-c1cc(N2CC3CCC(C2)O3)nc2c(-c3ccn[nH]3)cnn12 (centres undefined) | 4.53 | –
Cc1nn(-c2cncc(F)c2)c(C)c1-c1cc(N2CC3CCC(C2)O3)nc2c(-c3ccn[nH]3)cnn12 | 1.33 | –
